The record followed here is paper PMC7196836, “Molecular analysis of the ribosome recycling factor ABCE1 bound to the 30S post‐splitting complex” (The EMBO Journal, 2020).

For the assay, the target named is T1, ABCE1 (Saccharolobus solfataricus, UniProt Q980K5, L353Y).
T1 construct: gene SSO0287; recombinant in E. coli (pSA4 plasmid), C-terminal His6 tag; FeS cluster domain kept
The assay can be described thus: Malachite Green ATPase assay (phosphate release). It is filed as biochemical. To be noted: 2 mM ATP, 2.5 mM MgCl2, 150 mM NaCl, Hepes pH 7.5, 80 °C; no ribosomes.

Molecules are shown by their SMILES.

For the molecule `Nc1ncnc2c1ncn2[C@@H]1O[C@H](COP(=O)(O)OP(=O)(O)OP(=O)(O)O)[C@@H](O)[C@H]1O` [ATP], the “ATP turnover per ABCE1” value was “ATPase activity of ABCE1^L353Y (Appendix Fig S3) were comparable to wild type”.
